The source of these data is patent US8227422B2, “Peptides and compounds that bind to a receptor” (Glaxosmithkline LLC, priority 1996, dated 2012).

Molecules are shown by their SMILES. Where two headings read alike, the source gives them in different places. Where a SMILES comes first, the peptide text is derived from it. Bounds are passed on as bounds.

One experiment concerns the target T1, TPO receptor (Homo sapiens, UniProt P40238).
T1 sequence (P40238 26-635): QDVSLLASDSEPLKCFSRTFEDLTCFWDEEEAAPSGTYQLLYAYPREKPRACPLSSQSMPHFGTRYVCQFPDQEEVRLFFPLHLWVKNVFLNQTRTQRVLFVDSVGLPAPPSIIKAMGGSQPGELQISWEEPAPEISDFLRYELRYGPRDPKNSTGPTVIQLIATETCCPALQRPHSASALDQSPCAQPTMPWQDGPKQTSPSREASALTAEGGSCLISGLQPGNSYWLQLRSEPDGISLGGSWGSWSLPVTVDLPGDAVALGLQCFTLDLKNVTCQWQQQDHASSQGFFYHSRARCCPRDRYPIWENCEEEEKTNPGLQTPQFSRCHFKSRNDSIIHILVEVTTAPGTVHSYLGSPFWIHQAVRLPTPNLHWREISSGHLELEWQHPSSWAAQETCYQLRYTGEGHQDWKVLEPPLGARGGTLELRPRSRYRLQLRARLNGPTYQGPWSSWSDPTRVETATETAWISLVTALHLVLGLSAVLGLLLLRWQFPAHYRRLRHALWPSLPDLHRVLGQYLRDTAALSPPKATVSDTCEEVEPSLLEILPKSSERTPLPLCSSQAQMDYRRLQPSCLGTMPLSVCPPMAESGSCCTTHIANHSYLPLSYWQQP
In words: Microphysiometer assay: rate of acidification of extracellular medium on TPO receptor stimulation. Format: cell-based.

In another experiment the target is T2, TPO-R (Homo sapiens, UniProt P40238).
T2 construct: made in house
T2 sequence (P40238 26-491 limits assumed): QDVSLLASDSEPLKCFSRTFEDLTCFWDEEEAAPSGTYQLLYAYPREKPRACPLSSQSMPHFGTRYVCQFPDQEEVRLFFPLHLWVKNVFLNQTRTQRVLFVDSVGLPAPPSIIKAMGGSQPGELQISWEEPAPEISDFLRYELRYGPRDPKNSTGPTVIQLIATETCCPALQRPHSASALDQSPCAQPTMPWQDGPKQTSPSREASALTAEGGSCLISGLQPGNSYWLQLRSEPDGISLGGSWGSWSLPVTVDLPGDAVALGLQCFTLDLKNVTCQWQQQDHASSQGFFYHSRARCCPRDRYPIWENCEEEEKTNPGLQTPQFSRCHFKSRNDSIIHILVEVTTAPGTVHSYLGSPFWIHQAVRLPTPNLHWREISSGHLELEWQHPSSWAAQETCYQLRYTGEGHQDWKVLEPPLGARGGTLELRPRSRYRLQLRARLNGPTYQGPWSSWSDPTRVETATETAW
The experiment can be described thus: Competition binding assay (equilibrium binding ELISA, MBP-TPO156 tracer) on immobilized TPO-R. Conditions: read-out: IC50. The protocol: A variety of methods can be used to evaluate IC50 values. For example, an equilibrium binding ELISA assay, using either MBP-TPO or lacI-peptide tracer, was used to determine whether the peptides inhibit the binding of TPO to the extracellular domain of the TPO receptor. Typically, the IC50 value were determined using the free peptide. The IC50 value can be determined using the free peptide, which optionally can be C-terminally amidated, or can be prepared as an ester or other carboxy amide.
Binding affinities of chemically synthesized peptides for TPO-R were measured in a competition binding assay. The wells of a microtiter plate were coated with 1 mg streptavidin, blocked with PBS/1% BSA, followed by 50 ng of biotinylated anti-receptor immobilizing antibody (Ab179). The wells were then treated with a 1:10 dilution of soluble TPO-R harvest. Various concentrations of peptide or peptide mimetic were mixed with a constant amount of a truncated form of TPO consisting of residues 1-156 fused to the C-terminus of maltose binding protein (MBP-TPO156). The peptide MBP-TPO156 mixtures were added to the TPO-R coated wells, incubated for 2 hours at 4° C. and then washed with PBS. The amount of MBP-TPO156 that was bound at equilibrium was measured by adding a rabbit anti-sera directed against MBP, followed by alkaline phosphatase conjugated goat anti-rabbit IgG. The amount of alkaline phosphatase in each well was then determined using standard methods.
The assay is conducted over a range of peptide concentrations and the results are graphed such that the y axis represents the amount of bound MBP-TPO156 and the x axis represents the concentration of peptide or peptide mimetic.
(In an ELISA, binding on a coated surface is turned into a signal by an enzyme label.)

In experiment [1] the target is T3, human TPO-R (transfected Ba/F3 cells) (Homo sapiens, UniProt P40238).
T3 construct: Murine IL-3 dependent Ba/F3 cells were transfected with full length human TPO-R; expressed in transfected cells; host or cells: murine Ba/F3 cells
T3 sequence (P40238 26-635): T1 sequence (P40238 26-635)
The experiment can be described thus: Thrombopoietin dependent cell proliferation assay (MTT), TPO-R transfected Ba/F3 cells. Format: cell-based.
Protocol: Bioactivity of the peptides can be measured using a thrombopoietin dependent cell proliferation assay. Murine IL-3 dependent Ba/F3 cells were transfected with full length human TPO-R. In the absence of IL-3 (WEHI-3 conditioned media), these cells are dependent on TPO for proliferation.
The cells were grown in complete RPMI-10 media, containing 10% WEHI-3 conditioned media, then washed twice in PBS, resuspended in media which lacked WEHI-3 conditioned media, and added to wells containing dilutions of peptide or TPO at 2×10^4 cells/well. The cells were incubated for 48 hours at 37° C. in a humidified 5% CO2 atmosphere and metabolic activity was assayed by the reduction of MTT to formazan, with absorbance at 570 nm measured on an ELISA plate reader.

Where [2] appears, read: Table 7, dimer compounds, read-out: EC50 (nM) Microonys.
[3] abbreviates: Table 4, cyclized compounds, read-out: EC50 (nM) Proliferation.
Where [4] appears, read: Table 4, cyclized compounds, microphysiometer, read-out: EC50 (nM) Microonys.

Protocol for TPO receptor: In this example cyclized compounds were subjected to three assays. […] Finally, a microphysiometer (Molecular Devices Corp.) assay was performed. […] The ranges for EC50 are symbolically indicated as for IC50 described above.

For the compound `CC(C)C[C@H](NC(=O)[C@H](Cc1c[nH]c2ccccc12)NC(=O)[C@H](CCC(N)=O)NC(=O)[C@H](CCCNC(=N)N)NC(=O)[C@H](CC(C)C)NC(=O)[C@@H](NC(=O)[C@@H]1CCCN1C(=O)CNC(=O)[C@H](CCC(=O)O)NC(=O)[C@@H](N)CCCCN)[C@@H](C)O)C(=O)N[C@@H](C)C(=O)N[C@@H](C)C(=O)N[C@@H](CCCNC(=N)N)C(=O)N[C@@H](C)C(=O)NCCCC[C@H](NC(=O)CCNC(=O)[C@H](C)NC(=O)[C@H](CCCNC(=N)N)NC(=O)[C@H](C)NC(=O)[C@H](C)NC(=O)[C@H](CC(C)C)NC(=O)[C@H](Cc1c[nH]c2ccccc12)NC(=O)[C@H](CCC(N)=O)NC(=O)[C@H](CCCNC(=N)N)NC(=O)[C@H](CC(C)C)NC(=O)[C@@H](NC(=O)[C@@H]1CCCN1C(=O)CNC(=O)[C@H](CCC(=O)O)NC(=O)[C@@H](N)CCCCN)[C@@H](C)O)C(N)=O`, the EC50 at TPO receptor (setting [2]) is below 500 nM. Also, the IC50 – broadly, the concentration at which inhibition is half-maximal – on TPO-R (Table 7, dimer compounds) is at most 0.5 µM.

With `CC[C@H](C)[C@@H]1NC(=O)[C@H](Cc2c[nH]c3ccccc23)NC(=O)[C@H](CCC(=O)O)NC(=O)[C@H](CCCNC(=N)N)NC(=O)[C@H](CC(C)C)NC(=O)[C@H]([C@@H](C)O)NC(=O)[C@@H]2CCCN2C(=O)CNC(=O)[C@H](CC(=O)O)NC(=O)[C@H](C)NC(=O)C(c2ccccc2)SC[C@@H](C(N)=O)NC(=O)[C@H](Cc2ccccc2)NC(=O)[C@H](CO)NC1=O` (some centres unmarked) (HELM PEPTIDE1{A.D.G.P.T.L.R.E.W.I.S.F.C.[am]}|CHEM1{[O=C(C(c1ccccc1)[*:2])[*:1]]}$PEPTIDE1,CHEM1,1:R1-1:R1|PEPTIDE1,CHEM1,13:R3-1:R2$$$V2.0), the EC50 is below 500 nM in experiment [1] (setting [3]) and below 200000 nM on TPO receptor (setting [4]). Further, the IC50 on TPO-R (Table 4, cyclized compounds) is at most 0.5 µM.

For the compound `CC[C@H](C)[C@@H]1NC(=O)[C@H](Cc2c[nH]c3ccccc23)NC(=O)[C@H](CCC(=O)O)NC(=O)[C@H](CCCNC(=N)N)NC(=O)[C@H](CC(C)C)NC(=O)[C@H]([C@@H](C)O)NC(=O)[C@@H]2CCCN2C(=O)CNC(=O)[C@H](CC(=O)O)NC(=O)[C@H](C)NC(=O)CC[C@@H](C(N)=O)NC(=O)[C@H](Cc2ccccc2)NC(=O)[C@H](CO)NC1=O` (HELM PEPTIDE1{A.D.G.P.T.L.R.E.W.I.S.F.E.[am]}$PEPTIDE1,PEPTIDE1,1:R1-13:R3$$$V2.0), the EC50 (in experiment [1] (setting [3]); at TPO receptor (setting [4])) was below 200000 nM throughout. For the same compound, the IC50 on TPO-R (Table 4, cyclized compounds) is at most 200 µM.

As for `CC[C@H](C)[C@@H]1NC(=O)[C@H](Cc2c[nH]c3ccccc23)NC(=O)[C@H](CCC(=O)O)NC(=O)[C@H](CCCNC(=N)N)NC(=O)[C@H](CC(C)C)NC(=O)[C@H]([C@@H](C)O)NC(=O)[C@@H]2CCCN2C(=O)CNC(=O)[C@H](CC(=O)O)NC(=O)[C@H](C)NC(=O)C[S+]([O-])C[C@@H](C(N)=O)NC(=O)[C@H](Cc2ccccc2)NC(=O)[C@H](CO)NC1=O` (some centres unmarked) (HELM PEPTIDE1{A.D.G.P.T.L.R.E.W.I.S.F.[O=C([C@H](C[S+]([O-])CC(=O)[*:3])N[*:1])[*:2]].[am]}$PEPTIDE1,PEPTIDE1,1:R1-13:R3$$$V2.0), the EC50 (in experiment [1] (setting [3]); at TPO receptor (setting [4])) was below 200000 nM each time. Also, at TPO-R (Table 4, cyclized compounds), the 50% inhibitory concentration (IC50) was at most 200 µM.

`CC[C@H](C)[C@H](NC(=O)[C@H](Cc1c[nH]c2ccccc12)NC(=O)[C@H](CCC(=O)O)NC(=O)[C@H](CCCNC(=N)N)NC(=O)[C@H](CC(C)C)NC(=O)[C@@H](NC(=O)[C@@H]1CCCN1C(=O)CNC(=O)[C@H](CC(=O)O)NC(=O)[C@H](C)NC(=O)[C@@H](N)CSSC[C@H](N)C(=O)N[C@@H](C)C(=O)N[C@@H](CC(=O)O)C(=O)NCC(=O)N1CCC[C@H]1C(=O)N[C@H](C(=O)N[C@@H](CC(C)C)C(=O)N[C@@H](CCCNC(=N)N)C(=O)N[C@@H](CCC(=O)O)C(=O)N[C@@H](Cc1c[nH]c2ccccc12)C(=O)N[C@H](C(=O)N[C@@H](CO)C(=O)N[C@@H](Cc1ccccc1)C(N)=O)[C@@H](C)CC)[C@@H](C)O)[C@@H](C)O)C(=O)N[C@@H](CO)C(=O)N[C@@H](Cc1ccccc1)C(N)=O` (HELM PEPTIDE1{C.A.D.G.P.T.L.R.E.W.I.S.F.[am]}|PEPTIDE2{C.A.D.G.P.T.L.R.E.W.I.S.F.[am]}$PEPTIDE1,PEPTIDE2,1:R3-1:R3$$$V2.0): the EC50 in experiment [1] (Table 7, dimer compounds, read-out: EC50 (nM) Prolif.) was below 500 nM; at TPO receptor (setting [2]), below 500 nM. Also, at TPO-R (Table 7, dimer compounds), the IC50 was at most 0.5 µM.

For `CC[C@H](C)[C@H](NC(=O)[C@@H](N)CSSC[C@H](N)C(=O)N[C@H](C(=O)N[C@@H](CCC(=O)O)C(=O)NCC(=O)N1CCC[C@H]1C(=O)N[C@H](C(=O)N[C@@H](CC(C)C)C(=O)N[C@@H](CCCNC(=N)N)C(=O)N[C@@H](CCC(N)=O)C(=O)N[C@@H](Cc1c[nH]c2ccccc12)C(=O)N[C@@H](CC(C)C)C(=O)N[C@@H](C)C(=O)N[C@@H](C)C(=O)N[C@@H](CCCNC(=N)N)C(=O)N[C@@H](C)C(N)=O)[C@@H](C)O)[C@@H](C)CC)C(=O)N[C@@H](CCC(=O)O)C(=O)NCC(=O)N1CCC[C@H]1C(=O)N[C@H](C(=O)N[C@@H](CC(C)C)C(=O)N[C@@H](CCCNC(=N)N)C(=O)N[C@@H](CCC(N)=O)C(=O)N[C@@H](Cc1c[nH]c2ccccc12)C(=O)N[C@@H](CC(C)C)C(=O)N[C@@H](C)C(=O)N[C@@H](C)C(=O)N[C@@H](CCCNC(=N)N)C(=O)N[C@@H](C)C(N)=O)[C@@H](C)O` (HELM PEPTIDE1{C.I.E.G.P.T.L.R.Q.W.L.A.A.R.A.[am]}|PEPTIDE2{C.I.E.G.P.T.L.R.Q.W.L.A.A.R.A.[am]}$PEPTIDE1,PEPTIDE2,1:R3-1:R3$$$V2.0), the EC50 at TPO receptor (setting [2]) was below 500 nM. Besides, the IC50 at TPO-R (Table 7, dimer compounds) is at most 0.5 µM.

For `CC[C@H](C)[C@@H]1NC(=O)[C@H](Cc2c[nH]c3ccccc23)NC(=O)[C@H](CCC(=O)O)NC(=O)[C@H](CCCNC(=N)N)NC(=O)[C@H](CC(C)C)NC(=O)[C@H]([C@@H](C)O)NC(=O)[C@@H]2CCCN2C(=O)[C@@H](N)CSSC[C@@H](C(N)=O)NC(=O)[C@H](Cc2ccccc2)NC(=O)[C@H](CO)NC1=O` [ADG-deletion] (HELM PEPTIDE1{C.P.T.L.R.E.W.I.S.F.C.[am]}$PEPTIDE1,PEPTIDE1,1:R3-11:R3$$$V2.0; N-terminus and C-terminus assumed), the EC50 at TPO receptor (Table 5, value in parentheses, read-out: EC50 (nM), microphysiometer results given in parentheses) is below 200000 nM. The IC50 on TPO-R (Table 5) was at most 200 µM.

Take `CC[C@H](C)[C@@H]1NC(=O)[C@H](Cc2c[nH]c3ccccc23)NC(=O)[C@H](CCC(=O)O)NC(=O)[C@H](CCCNC(=N)N)NC(=O)[C@H](CC(C)C)NC(=O)[C@H]([C@@H](C)O)NC(=O)[C@@H]2CCCN2C(=O)CNC(=O)[C@H](CC(=O)O)NC(=O)[C@H](C)NC(=O)CSC[C@@H](C(=O)O)NC(=O)[C@H](Cc2ccccc2)NC(=O)[C@H](CO)NC1=O` [free acid form] (HELM PEPTIDE1{[O=C(C[*:3])[*:2]].A.D.G.P.T.L.R.E.W.I.S.F.C}$PEPTIDE1,PEPTIDE1,1:R3-14:R3$$$V2.0): the EC50 in experiment [1] (Table 6, read-out: EC50 (nM) Cell Prolif.) is below 500 nM; at TPO receptor (Table 6, value in parentheses, read-out: EC50 (nM), microphysiometer results in parentheses), below 200000 nM.
